From US8178506B2, “Oligomeric compounds and compositions for use in modulation of small non-coding RNAs” (Regulus Therapeutics Inc., priority 2003, dated 2012)

Tested on: mir-143 binding site in 3′-UTR of ERK5
Assay: pGL3-ERK5-3′UTR luciferase assays in HeLa cells
Type: cell-based, human
Details: for luciferase expression: HeLa cells, 24 hours
Experimental: An expression system based on the pGL3-Control (Promega Corp., Madison Wis.) reporter vector and comprising predicted miRNA binding sites was used in transient transfections of HeLa cells with plasmids expressing oligomeric compounds mimicking miRNAs, pre-miRNAs or pri-miRNAs in order to assess the ability of these miRNA mimics to bind and regulate the expression of the luciferase reporter. The effect of increasing the copy number of the miRNA-binding site in the target was also tested by including multiple binding sites in artificial reporter constructs. It is understood that the presence of multiple miRNA-binding sites in a target can include binding sites for different miRNAs.
The following reporter plasmids were constructed by cloning the specified fragment into the XbaI site of the pGL3-control plasmid, placing the potential miRNA-binding site in the 3′-UTR of the luciferase reporter: The reporter plasmid pGL3-bulge(×3) contains three contiguous copies of the sequence ([…]; herein incorporated as SEQ ID NO: 874) which represents a sequence complementary to the mir-143 miRNA except that it is missing 2 nucleotides such that the mir-143 miRNA is presumed to adopt a bulged structure when it hybridizes to this target sequence. The pGL3-GLO1 reporter plasmid contains a DNA fragment comprising the 3′-UTR of the GLO1 sequence; this fragment was PCR-amplified using a primer beginning at nucleotide number 621 of the GLO1 sequence (GenBank Accession NM_006708.1, SEQ ID NO: 821) and the downstream primer hybridizing to the poly A tail. The pGL3-PP2A reporter plasmid contains a DNA fragment comprising the 3′-UTR of the PP2A gene; this fragment was PCR-amplified using a primer beginning at nucleotide number 921 of the PP2A sequence (GenBank Accession NM_004156.1) and the downstream primer hybridizing to the poly A tail. The reporter plasmid pGL3-ERK5-3′-UTR(×1) contains one copy of the sequence […] (herein incorporated as SEQ ID NO: 875), found in the 3′-UTR of ERK5 and predicted by Lewis, et al. to be bound by the mir-143 miRNA, and the reporter plasmid pGL3-ERK5-3′UTR(×3) has three contiguous copies of this sequence. The reporter plasmid pGL3-ERK5-3′UTR(ext) contains one copy of the sequence […] (herein incorporated as SEQ ID NO: 876), which includes an additional ten nucleotides at either end of the mir-143 binding site in 3′-UTR of ERK5 predicted by Lewis, et al. (Lewis et al., Cell, 2003, 115, 787-798). The plasmids pGL3-ERK5-cds(×1), pGL3-ERK5-cds(×2), pGL3-ERK5-cds(×3), and pGL3-ERK5-cds(×5) contain one, two, three or five contiguous copies, respectively, of the novel mir-143 binding site ([…]; herein incorporated as SEQ ID NO: 877) we identified within the coding sequence of ERK5. The unmodified pGL3-Control luciferase reporter vector was used as a negative control, and the pGL3-mir-143 sensor reporter plasmid was used as a positive control.
HeLa cells were routinely cultured and passaged as described. In some embodiments, HeLa cells were transfected with 0.05 μg of the relevant pGL3-sensor plasmid and 0.01 μg pRL-CMV plasmid. Additionally, in some embodiments, cells were treated at various dosages (11 nM, 33 nM, and 100 nM) with the following oligomeric compound mimics: 1) ds-mir-143, or 2) ds-Control as described. In accordance with methods described in Example 12, a luciferase assay was performed 24-hours after transfection. The results, shown in Tables 40 and 41, are an average of three trials. Data are presented as percent untreated control (luciferase plasmid only, not treated with oligomeric compound) luciferase expression, normalized to pRL-CMV levels.

“ds-mir-143: double-stranded RNA of ISIS 342199 hybridized to its perfect complement ISIS 342200 (sense UGAGAUGAAGCACUGUAGCUCA; antisense UGAGCUACAGUGCUUCAUCUCA; RNA, backbone not given here)” was tested, and the “luciferase activity from pGL3-ERK5-3′UTR(×1)” value (HeLa, 11, 33 and 100 nM) was “did not inhibit luciferase activity”, the “luciferase activity from pGL3-ERK5-3′UTR(×3)” value (HeLa, 11, 33 and 100 nM) was “inhibition of luciferase activity” and the luciferase expression (Table 40, pGL3-ERK5-3′UTR(x1), 11 nM) was 81.9 percent untreated control. The luciferase expression (Table 40, pGL3-ERK5-3′UTR(x1), 33 nM) was 84.7 percent untreated control, the luciferase expression (Table 40, pGL3-ERK5-3′UTR(x1), 100 nM) was 62.2 percent untreated control and the luciferase expression (Table 41, pGL3-ERK5-3′UTR(ext), 11 nM) was 89.0 percent untreated control. It also gave a luciferase expression (Table 41, pGL3-ERK5-3′UTR(ext), 33 nM) of 106.7 percent untreated control, a luciferase expression (Table 41, pGL3-ERK5-3′UTR(ext), 100 nM) of 81.4 percent untreated control and a luciferase expression (Table 41, pGL3-ERK5-3′UTR(x1), 11 nM) of 92.2 percent untreated control. The luciferase expression (Table 41, pGL3-ERK5-3′UTR(x1), 33 nM) was 108.1 percent untreated control, the luciferase expression (Table 41, pGL3-ERK5-3′UTR(x1), 100 nM) was 81.9 percent untreated control and the luciferase expression (Table 41, pGL3-ERK5-3′UTR(x3), 11 nM) was 51.7 percent untreated control. It also gave a luciferase expression (Table 41, pGL3-ERK5-3′UTR(x3), 33 nM) of 51.0 percent untreated control and a luciferase expression (Table 41, pGL3-ERK5-3′UTR(x3), 100 nM) of 28.2 percent untreated control.
